Article PMC6271228, “Diethyl 2-(Phenylcarbamoyl)phenyl Phosphorothioates: Synthesis, Antimycobacterial Activity and Cholinesterase Inhibition” (Molecules, 2014)
≈ marks a conversion by molar mass, not a printed value. Read-outs that look alike come from different tables or passages of the source.

Legend:
[1] = system: M. kansasii 6509/96 (clinically isolated); experiment: microbe, parasite or virus in culture; assay type: cell-based; conditions: Mycobacterium kansasii, 37 °C
[2] = biological target: T1, BChE from equine serum (Equus caballus, UniProt P81908); experiment: BChE inhibition, modified Ellman's method; assay type: biochemical
T1 construct: butyrylcholinesterase from equine serum; from tissue; host or cells: equine serum
T1 sequence (P81908 whole entry): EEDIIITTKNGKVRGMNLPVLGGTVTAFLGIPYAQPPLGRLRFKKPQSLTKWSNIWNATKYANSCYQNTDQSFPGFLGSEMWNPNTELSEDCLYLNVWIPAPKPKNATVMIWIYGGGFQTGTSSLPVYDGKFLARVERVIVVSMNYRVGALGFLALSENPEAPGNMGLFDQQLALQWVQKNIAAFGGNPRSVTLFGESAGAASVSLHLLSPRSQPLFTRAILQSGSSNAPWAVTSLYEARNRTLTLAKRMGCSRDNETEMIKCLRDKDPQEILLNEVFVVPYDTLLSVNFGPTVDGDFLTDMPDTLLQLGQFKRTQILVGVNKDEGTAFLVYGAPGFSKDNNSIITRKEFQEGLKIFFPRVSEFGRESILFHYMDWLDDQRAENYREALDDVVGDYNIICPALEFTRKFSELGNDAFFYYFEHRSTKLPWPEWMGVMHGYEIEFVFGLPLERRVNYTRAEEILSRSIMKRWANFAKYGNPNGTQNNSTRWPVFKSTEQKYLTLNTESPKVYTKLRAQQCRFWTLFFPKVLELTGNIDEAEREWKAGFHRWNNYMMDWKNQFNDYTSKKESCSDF
Excerpt: (§1) The ability of the tested compounds to inhibit AChE from electric eel (Electrophorus electricus L.) and BChE from equine serum was screened in vitro using modified Ellman’s method for the evaluation of cholinesterase activity. […] […]. These two standards were chosen due to their different structures. […]. The choice of these drugs with different mechanism of action can provide relevant results. All tested compounds expressed a good inhibitory activity with IC50s in low micromolar values.
(§2) The IC50 values were determined using the spectrophotometric Ellman’s method, which is a simple, rapid and direct method to determine the SH and -S-S- group content in proteins. This method is widely used for cholinesterase activity evaluation and screening of the efficiency of cholinesterase inhibitors. Cholinesterase activity is measured indirectly by quantifying the concentration of 5-thio-2-nitrobenzoic acid (TNB) ion formed in the reaction between the thiol reagent 5,5'-dithiobis-2-nitrobenzoic acid (DTNB) and thiocholine, a product of substrate hydrolysis by cholinesterase (i.e., acetylthiocholine, ATCh). All the tested compounds were dissolved in dimethyl sulfoxide (concentration 0.01 M) and then diluted in demineralised water (concentration 0.001 M and 0.0001 M). The Ellman’s method is slightly modified according to Zdrazilova et al.. Acetylcholinesterase was obtained from electric eel (Electrophorus electricus L.) and butyrylcholinesterase from equine serum.

[3] = biological target: T2, AChE from electric eel (Electrophorus electricus, UniProt O42275); experiment: AChE inhibition, modified Ellman's method; assay type: biochemical, Electrophorus electricus L.
T2 construct: Acetylcholinesterase was obtained from electric eel (Electrophorus electricus L.); from tissue; host or cells: electric eel (Electrophorus electricus L.)
T2 sequence (O42275 24-633): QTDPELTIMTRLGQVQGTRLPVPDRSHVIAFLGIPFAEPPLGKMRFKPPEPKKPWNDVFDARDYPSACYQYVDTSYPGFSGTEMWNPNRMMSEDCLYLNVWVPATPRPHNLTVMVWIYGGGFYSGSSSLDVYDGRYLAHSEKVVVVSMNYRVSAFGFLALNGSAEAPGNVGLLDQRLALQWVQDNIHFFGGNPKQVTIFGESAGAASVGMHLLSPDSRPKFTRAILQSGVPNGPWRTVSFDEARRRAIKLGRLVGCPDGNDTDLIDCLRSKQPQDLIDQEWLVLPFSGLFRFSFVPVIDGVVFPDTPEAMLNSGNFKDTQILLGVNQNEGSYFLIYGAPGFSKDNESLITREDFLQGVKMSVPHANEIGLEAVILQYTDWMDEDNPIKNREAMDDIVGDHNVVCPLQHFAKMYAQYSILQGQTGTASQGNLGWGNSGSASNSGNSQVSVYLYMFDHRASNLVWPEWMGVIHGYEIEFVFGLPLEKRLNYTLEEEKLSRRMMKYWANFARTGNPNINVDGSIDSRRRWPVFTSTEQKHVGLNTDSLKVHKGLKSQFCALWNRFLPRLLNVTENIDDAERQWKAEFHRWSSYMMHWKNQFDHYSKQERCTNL
Excerpt: as §1, §2

[4] = system: M. kansasii My 235/80; experiment: microbe, parasite or virus in culture; assay type: cell-based, Mycobacterium kansasii; conditions: for MIC: Mycobacterium kansasii, 37 °C; for MICs for M. kansasii 235/80: all time points
[5] = system: M. avium My 330/88; experiment: microbe, parasite or virus in culture; assay type: cell-based, Mycobacterium avium; conditions: for MIC: Mycobacterium avium, 37 °C
[6] = system: Mycobacterium tuberculosis My 331/88 (H37Rv); experiment: microbe, parasite or virus in culture; assay type: cell-based
[7] = 168 h, 7 d, read-out: MIC M. kansasii 6509/96 7 d
[8] = 336 h, 14 d, read-out: MIC M. kansasii 6509/96 14 d
[9] = 504 h, 21 d, read-out: MIC M. kansasii 6509/96 21 d
[10] = MY235/80, 168 h, 7 d, read-out: MIC M. kansasii 235/80 7 d
[11] = MY235/80, 336 h, 14 d, read-out: MIC M. kansasii 235/80 14 d
[12] = MY235/80, 504 h, 21 d, read-out: MIC M. kansasii 235/80 21 d
[13] = MY330/88, 336 h, 14 d, read-out: MIC M. avium 330/88 14 d
[14] = MY330/88, 504 h, 21 d, read-out: MIC M. avium 330/88 21 d
[15] = 336 h, 14 d, 37 °C, read-out: MIC Mtb 331/88 (H37Rv) 14 d
[16] = 504 h, 21 d, 37 °C, read-out: MIC Mtb 331/88 (H37Rv) 21 d

Structure (SMILES) | MIC [1, 7] [µM] | MIC [1, 8] [µM] | MIC [1, 9] [µM] | IC50 [2] [µM] | IC50 [3] [µM] | MIC [4, 10] [µM] | MIC [4, 11] [µM] | MIC [4, 12] [µM] | MIC [5, 13] [µM] | MIC [5, 14] [µM] | MIC [6, 15] [µM] | MIC [6, 16] [µM] | MIC ([6]; read-out: MIC against Mtb) [µM] | MICs for M. kansasii 235/80 [4] [µM] | MIC values against M. avium ([5]; all MIC values (14 and 21 d)) [µM]
CCOP(=S)(OCC)Oc1ccc(Cl)cc1C(=O)Nc1ccc(C(F)(F)F)cc1 [1r, O-(4-Chloro-2-{[4-(trifluoromethyl)phenyl]carbamoyl}phenyl) O,O-diethyl phosphorothioate] | 62.5 (≈ 29.2 µg/mL) | 125 (≈ 58.5 µg/mL) | 250 (≈ 117 µg/mL) | 15.6 ± 0.7 | 9.7 ± 0.18 | 62.5 (≈ 29.2 µg/mL) | 125 (≈ 58.5 µg/mL) | 250 (≈ 117 µg/mL) | 500 (≈ 234 µg/mL) | 500 (≈ 234 µg/mL) | 8 (≈ 3.74 µg/mL) | 8 (≈ 3.74 µg/mL) | 8 (≈ 3.74 µg/mL) | – | –
CCOP(=S)(OCC)Oc1ccc(Br)cc1C(=O)Nc1ccc(Br)cc1 [1e, O-{4-Bromo-2-[(4-bromophenyl)carbamoyl]phenyl} O,O-diethyl phosphorothioate] | 62.5 (≈ 32.7 µg/mL) | 250 (≈ 131 µg/mL) | 250 (≈ 131 µg/mL) | 18.9 ± 0.2 | 10.7 | 125 (≈ 65.4 µg/mL) | 250 (≈ 131 µg/mL) | 250 (≈ 131 µg/mL) | 250 (≈ 131 µg/mL) | 250 (≈ 131 µg/mL) | 8 (≈ 4.19 µg/mL) | 16 (≈ 8.37 µg/mL) | – | ≤ 250 | ≤ 250
CCOP(=S)(OCC)Oc1ccc(Cl)cc1C(=O)Nc1cccc(C(F)(F)F)c1 [1q, O-(4-Chloro-2-{[3-(trifluoromethyl)phenyl]carbamoyl}phenyl) O,O-diethyl phosphorothioate] | 125 (≈ 58.5 µg/mL) | 500 (≈ 234 µg/mL) | 500 (≈ 234 µg/mL) | 19.9 ± 0.2 | 12.1 ± 0.2 | 125 (≈ 58.5 µg/mL) | 500 (≈ 234 µg/mL) | > 500 | 500 (≈ 234 µg/mL) | > 500 | 8 (≈ 3.74 µg/mL) | 8 (≈ 3.74 µg/mL) | 8 (≈ 3.74 µg/mL) | – | –
CCOP(=S)(OCC)Oc1ccc(Br)cc1C(=O)Nc1ccc(Cl)cc1 [1b, O-{4-Bromo-2-[(4-chlorophenyl)carbamoyl]phenyl} O,O-diethyl phosphorothioate] | 125 (≈ 59.8 µg/mL) | 500 (≈ 239 µg/mL) | 500 (≈ 239 µg/mL) | 13.5 ± 0.9 | 12.9 ± 0.1 | 125 (≈ 59.8 µg/mL) | 500 (≈ 239 µg/mL) | 500 (≈ 239 µg/mL) | 500 (≈ 239 µg/mL) | 500 (≈ 239 µg/mL) | 16 (≈ 7.66 µg/mL) | 16 (≈ 7.66 µg/mL) | – | – | –
CCOP(=S)(OCC)Oc1ccc(Cl)cc1C(=O)Nc1ccc(Cl)c(Cl)c1 [1l, O-{4-Chloro-2-[(3,4-dichlorophenyl)carbamoyl]phenyl} O,O-diethyl phosphorothioate] | 125 (≈ 58.6 µg/mL) | 250 (≈ 117 µg/mL) | 250 (≈ 117 µg/mL) | 17.4 ± 0.5 | 9.33 ± 0.11 | 125 (≈ 58.6 µg/mL) | 250 (≈ 117 µg/mL) | 500 (≈ 234 µg/mL) | > 500 | > 500 | 8 (≈ 3.75 µg/mL) | 8 (≈ 3.75 µg/mL) | 8 (≈ 3.75 µg/mL) | – | –
CCOP(=S)(OCC)Oc1ccc(Cl)cc1C(=O)Nc1ccc(Cl)cc1 [1k, O-{4-Chloro-2-[(4-chlorophenyl)carbamoyl]phenyl} O,O-diethyl phosphorothioate] | 62.5 (≈ 27.1 µg/mL) | 125 (≈ 54.3 µg/mL) | 125 (≈ 54.3 µg/mL) | 12.7 ± 0.1 | 9.78 ± 0.11 | 32 (≈ 13.9 µg/mL) | 62.5 (≈ 27.1 µg/mL) | 62.5 (≈ 27.1 µg/mL) | 500 (≈ 217 µg/mL) | 500 (≈ 217 µg/mL) | 32 (≈ 13.9 µg/mL) | 32 (≈ 13.9 µg/mL) | – | ≤ 250 | –
CCOP(=S)(OCC)Oc1ccc(Cl)cc1C(=O)Nc1cccc(Br)c1 [1m, O-{2-[(3-Bromophenyl)carbamoyl]-4-chlorophenyl} O,O-diethyl phosphorothioate] | 125 (≈ 59.8 µg/mL) | 500 (≈ 239 µg/mL) | 500 (≈ 239 µg/mL) | 15.1 ± 1.3 | 14.1 ± 0.2 | 125 (≈ 59.8 µg/mL) | 500 (≈ 239 µg/mL) | > 500 | 500 (≈ 239 µg/mL) | 500 (≈ 239 µg/mL) | 16 (≈ 7.66 µg/mL) | 16 (≈ 7.66 µg/mL) | – | – | –
Nc1ccc(C(=O)O)c(O)c1 [PAS, para-aminosalicylic acid, reference compound] | 32 (≈ 4.9 µg/mL) | 125 (≈ 19.1 µg/mL) | 500 (≈ 76.6 µg/mL) | – | – | 125 (≈ 19.1 µg/mL) | 1000 (≈ 153 µg/mL) | > 1000 | 32 (≈ 4.9 µg/mL) | 125 (≈ 19.1 µg/mL) | 62.5 (≈ 9.57 µg/mL) | 62.5 (≈ 9.57 µg/mL) | – | – | –
